Where two headings read alike, the source gives them in different places.
Legend:
GABAA-R = target: T1, GABAA-R (Homo sapiens, UniProt P14867+P47870); experiment: Electrophysiological evaluation at GABAA-R (Table 2); type: cell-based
T1 sequence (P14867 1-456): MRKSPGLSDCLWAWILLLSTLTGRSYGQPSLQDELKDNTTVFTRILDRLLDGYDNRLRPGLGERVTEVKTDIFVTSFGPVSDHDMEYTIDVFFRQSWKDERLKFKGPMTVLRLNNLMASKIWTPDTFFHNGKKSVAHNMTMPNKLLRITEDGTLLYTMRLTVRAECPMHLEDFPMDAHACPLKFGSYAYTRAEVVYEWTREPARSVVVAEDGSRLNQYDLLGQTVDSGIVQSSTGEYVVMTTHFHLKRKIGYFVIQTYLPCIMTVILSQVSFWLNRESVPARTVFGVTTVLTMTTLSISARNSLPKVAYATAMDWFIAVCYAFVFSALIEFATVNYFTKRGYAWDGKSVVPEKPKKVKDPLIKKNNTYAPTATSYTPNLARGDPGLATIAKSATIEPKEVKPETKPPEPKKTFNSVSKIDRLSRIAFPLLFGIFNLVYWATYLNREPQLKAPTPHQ
T1 sequence (P47870 1-512): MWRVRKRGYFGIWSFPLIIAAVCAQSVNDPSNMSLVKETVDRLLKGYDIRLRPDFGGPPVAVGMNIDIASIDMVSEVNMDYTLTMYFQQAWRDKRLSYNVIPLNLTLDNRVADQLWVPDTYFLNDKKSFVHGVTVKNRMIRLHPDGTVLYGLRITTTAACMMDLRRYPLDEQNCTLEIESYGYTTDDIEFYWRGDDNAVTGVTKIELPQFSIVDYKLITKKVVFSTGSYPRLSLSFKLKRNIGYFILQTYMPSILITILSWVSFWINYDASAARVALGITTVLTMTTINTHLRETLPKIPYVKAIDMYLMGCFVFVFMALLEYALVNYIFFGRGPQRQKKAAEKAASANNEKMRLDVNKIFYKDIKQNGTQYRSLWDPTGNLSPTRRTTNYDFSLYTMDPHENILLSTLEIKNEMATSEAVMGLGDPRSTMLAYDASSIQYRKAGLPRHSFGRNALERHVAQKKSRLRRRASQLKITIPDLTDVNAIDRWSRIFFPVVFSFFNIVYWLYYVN
Procedure: (§1) Patch Clamp Electrophysiology of Recombinant α1β2γ2 and α4β3δ GABAA Receptors
(§2) Cellular electrophysiology is used to measure the pharmacological properties of our GABAA receptor modulators in heterologous cell systems. Each compound is tested for its ability to affect GABA mediated currents at a submaximal agonist dose (GABA EC20=2 μM). LTK cells are stably transfected with the α1β2γ2 subunits of the GABA receptor and CHO cells are transiently transfected with the α4β3δ subunits via the Lipofecatamine method. Cells were passaged at a confluence of about 50-80% and then seeded onto 35 mm sterile culture dishes containing 2 ml culture complete medium without antibiotics or antimycotics. Confluent clusters of cells are electrically coupled (Pritchett et al., Science, 1988, 242, 1306-1308.). Because responses in distant cells are not adequately voltage clamped and because of uncertainties about the extent of coupling (Verdoorn et al., Neuron 1990, 4, 919-928.), cells were cultivated at a density that enables the recording of single cells (without visible connections to other cells).
(§3) Whole cell currents were measured with HEKA EPC-10 amplifiers using PatchMaster software or by using the high throughput QPatch platform (Sophion). Bath solution for all experiments contained (in mM): NaCl 137 mM, KCl 4 mM, CaCl2 1.8 mM, MgCl2 1 mM, HEPES 10 mM, D-Glucose 10 mM, pH (NaOH) 7.4. In some cases 0.005% cremophor was also added. Intracellular (pipette) solution contained: KCl 130 mM, MgCl2 1 mM, Mg-ATP 5 mM, HEPES 10 mM, EGTA 5 mM, pH 7.2. During experiments, cells and solutions were maintained at room temperature (19° C.-30° C.). For manual patch clamp recordings, cell culture dishes were placed on the dish holder of the microscope and continuously perfused (1 ml/min) with bath solution. After formation of a Gigaohm seal between the patch electrodes and the cell (pipette resistance range: 2.5 MΩ-6.0 MΩ; seal resistance range: >1 GΩ) the cell membrane across the pipette tip was ruptured to assure electrical access to the cell interior (whole-cell patch-configuration). For experiments using the QPatch system, cells were transferred as suspension to the QPatch system in the bath solution and automated whole cell recordings were performed.
(§4) Cells were voltage clamped at a holding potential of −80 mV. For the analysis of test articles, GABA receptors were stimulated by 2 μM GABA after sequential pre-incubation of increasing concentrations of the test article. Pre-incubation duration was 30 s and the duration of the GABA stimulus was 2 s. Test articles were dissolved in DMSO to form stock solutions (10 mM). Test articles were diluted to 0.01, 0.1, 1, and 10 μM in bath solution. All concentrations of test articles were tested on each cell. The relative percentage potentiation was defined as the peak amplitude in response to GABA EC20 in the presence of the test article divided by the peak amplitude in response to GABA EC20 alone, multiplied by 100.

GABAA receptor α4β3δ = target: T2, GABAA receptor α4β3δ (Homo sapiens, UniProt P28472+P48169); experiment: Patch clamp electrophysiology, manual patch in CHO cells; type: cell-based; conditions: 10 μM test article, GABA EC20 2 μM, read-out: GABA (α4β3δ) Manual patch in CHO, % efficacy at 10 μM
T2 construct: expressed in transfected cells; host or cells: CHO cells (transient, lipofection)
T2 sequence (P48169 36-554): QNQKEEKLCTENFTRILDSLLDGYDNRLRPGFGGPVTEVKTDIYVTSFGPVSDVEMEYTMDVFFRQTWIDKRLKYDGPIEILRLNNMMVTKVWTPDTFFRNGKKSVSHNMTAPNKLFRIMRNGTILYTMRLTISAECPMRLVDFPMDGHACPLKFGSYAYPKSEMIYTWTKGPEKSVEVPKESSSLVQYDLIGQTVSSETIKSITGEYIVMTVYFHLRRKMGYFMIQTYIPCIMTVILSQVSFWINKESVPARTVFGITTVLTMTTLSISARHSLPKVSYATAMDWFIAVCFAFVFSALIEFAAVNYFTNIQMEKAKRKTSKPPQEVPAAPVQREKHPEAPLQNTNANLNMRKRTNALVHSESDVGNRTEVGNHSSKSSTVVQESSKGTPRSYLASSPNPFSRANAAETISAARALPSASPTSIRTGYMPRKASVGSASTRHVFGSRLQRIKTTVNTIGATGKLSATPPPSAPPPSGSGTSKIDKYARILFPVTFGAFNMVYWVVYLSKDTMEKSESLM
T2 sequence (P28472 26-473): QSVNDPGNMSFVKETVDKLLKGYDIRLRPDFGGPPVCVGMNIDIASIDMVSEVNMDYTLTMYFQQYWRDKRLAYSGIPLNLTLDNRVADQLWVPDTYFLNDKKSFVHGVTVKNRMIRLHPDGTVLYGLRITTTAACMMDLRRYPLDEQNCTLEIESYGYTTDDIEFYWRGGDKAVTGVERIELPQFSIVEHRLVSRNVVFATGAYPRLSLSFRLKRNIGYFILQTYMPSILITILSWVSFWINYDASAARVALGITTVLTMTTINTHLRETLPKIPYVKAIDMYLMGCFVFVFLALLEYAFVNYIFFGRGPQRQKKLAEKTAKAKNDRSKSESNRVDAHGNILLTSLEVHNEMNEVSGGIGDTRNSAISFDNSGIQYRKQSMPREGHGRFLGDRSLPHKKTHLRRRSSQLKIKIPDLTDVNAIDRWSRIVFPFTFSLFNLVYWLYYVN
T2 sequence (O14764 25-452 partner): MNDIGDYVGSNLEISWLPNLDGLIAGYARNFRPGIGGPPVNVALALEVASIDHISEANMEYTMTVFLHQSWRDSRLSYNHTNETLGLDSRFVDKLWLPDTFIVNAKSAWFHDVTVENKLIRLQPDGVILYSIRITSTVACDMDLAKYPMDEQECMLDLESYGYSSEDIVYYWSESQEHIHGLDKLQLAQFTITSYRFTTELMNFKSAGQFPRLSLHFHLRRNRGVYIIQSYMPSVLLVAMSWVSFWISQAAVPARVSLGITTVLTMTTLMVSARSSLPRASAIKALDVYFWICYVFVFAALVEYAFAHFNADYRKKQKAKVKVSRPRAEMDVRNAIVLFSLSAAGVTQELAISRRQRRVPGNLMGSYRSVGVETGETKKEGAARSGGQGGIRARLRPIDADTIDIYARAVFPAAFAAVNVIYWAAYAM
Procedure: as §1, §2, §3, §4

[1] = GABAA-R electrophysiology, read-out: EC50

SMILES	EC50 (GABAA-R)	Emax (GABAA-R; GABAA-R electrophysiology)	Emax at 10 µM (GABAA receptor α4β3δ)	EC50 (GABAA-R; [1])
C[C@@]1(O)CC[C@H]2[C@H](CC[C@@H]3[C@@H]2CC[C@]2(C)[C@@H](C(=O)Cn4cc(C#N)cn4)CC[C@@H]32)C1 [SA-4]	100 to 500 nM	0 to 500%	100 to 500%	–
Cc1cnn(CC(=O)[C@H]2CC[C@H]3[C@@H]4CC[C@@H]5C[C@](C)(O)CC[C@@H]5[C@H]4CC[C@]23C)c1 [SA-6]	–	0 to 500%	> 500%	100 to 500 nM
C[C@@]1(O)CC[C@H]2[C@H](CC[C@@H]3[C@@H]2CC[C@]2(C)[C@@H](C(=O)Cn4cccn4)CC[C@@H]32)C1 [SA-13]	–	0 to 500%	> 500%	500 to 1000 nM
